According to patent publication EP3281632A1, “ARGON FOR USE IN THE PREVENTION OF BOTH CARDIAC AND CEREBRAL INJURY INDUCED BY ISCHEMIA/REPERFUSION FOLLOWING CARDIAC ARREST” (Societa'Italiana Acetilene & Derivati S.I.A.D. S.p.A. in …, priority 2016, dated 2018):

Key:
[1] = system: cardiac arrest and CPR in the pig; test: Severe model of cardiac arrest and CPR in the pig, 4 hr ventilation after CPR; type: in vivo; set-up: circulating levels of hs-cTnT (median): unit not given here
Procedure: In a severe model of cardiac arrest and CPR in the pig, treatment with inhaled argon allowed for concurrent cardiac and cerebral protection. After 12 min of untreated cardiac arrest and 5 min of CPR, animals were subjected to 4 hr ventilation with (a) 70% argon - 30% 02 or (b) 70% N2 - 30% 02.

[2] = system: cardiac arrest and CPR in the rat; test: Model of cardiac arrest and CPR in the rat, argon ventilation started during CPR; type: in vivo
Procedure: In a model of cardiac arrest and CPR in the rat, treatment with inhaled argon was initiated early, concurrently with chest compression prior to resuscitation. After 7 min of untreated cardiac arrest, 5 min of CPR were initiated and animals were subjected to ventilation with (a) 70% argon - 30% 02 or (b) 70% N2 - 30% 02. The above ventilation strategies were continued up to 2 hrs following resuscitation.

cardiac arrest, pigs = settings: cited from earlier work
[3] = system: left anterior descending coronary artery occlusion (LAD); settings: rabbits; three 5-min cycles of 70% argon in oxygen prior to 30 min LAD occlusion; in comparison to control ventilation; cited from earlier work
[4] = system: rats resuscitated after cardiac arrest; settings: post resuscitation ventilation with 70% argon, cited from earlier work
[5] = system: acute myocardial infarction by LAD occlusion in the rat; test: Model of acute myocardial infarction by LAD occlusion in the rat; type: in vivo
Procedure: In a model of acute myocardial infarction by LAD occlusion in the rat, ventilation with argon reduced myocardial injury. More in details, the LAD occlusion was removed after 30 min; 5 min before reperfusion, animals were randomized to 1 hour ventilation with: (1) 70% argon - 30% oxygen; or (2) 70% nitrogen - 30% oxygen. […] Moreover, a reduced inflammatory response in terms of neutrophil infiltration in the argon ventilation group compared to control group was observed (72 cells/mm^2 vs. 92 cells/mm^2).

[6] = during the 4 hr of observation, compared to controls
[7] = argon during CPR and up to 2 hrs after resuscitation, compared to controls

Compound: [Ar] [argon]
- Cerebral Performance Category ([1]; 12 min untreated cardiac arrest, 5 min CPR, 4 hr ventilation with 70% argon - 30% 02, control 3.4 ± 1.6): 1.7 ± 1.3
- circulating levels of NSE (median) ([1]; 4 hr ventilation 70% argon - 30% 02, control 21.2 ng/mL, p not significant): 8.5 ng/mL
- circulating levels of hs-cTnT (median) ([1]; 4 hr ventilation 70% argon - 30% 02, control 8015 ng/mL, p < 0.05): 1332
- myocardial infarct size ([1]; after argon treatment, compared to controls): significantly lower
- heart rate [1, 6]: significantly lower
- mean arterial pressure [1, 6]: higher
- stroke volume [1, 6]: higher
- recovery of systolic myocardial function ([1]; evaluated echocardiographically at 96 hr, compared to controls): significantly better recovery
- resuscitation rate ([2]; 7 min untreated cardiac arrest, 5 min CPR with 70% argon - 30% 02 ventilation, control 85%): 93%
- post resuscitation coronary perfusion pressure [2, 7]: higher
- post resuscitation mean arterial pressure [2, 7]: higher
- lactate/pyruvate ratio in the hippocampus ([2]; cerebral microdialysis, compared to controls): lower
- left ventricle ejection fraction ([2]; compared to the control ventilation): trend toward better
- neurological recovery ([2]; compared to those ventilated with nitrogen and oxygen): significantly faster and better
- troponin T release ([2]; trend, compared to the control ventilation): lower
- neurological recovery (cardiac arrest, pigs; 70% argon-30% oxygen after ROSC, in contrast to nitrogen and oxygen): fast and complete
- post resuscitation increase in plasmatic cardiac troponin T (cardiac arrest, pigs; 8 min untreated cardiac arrest, 5 min CPR, 70% argon-30% oxygen after ROSC): three-fold lower
- brain injury (histopathology) (cardiac arrest, pigs; compared to control): lesser brain injury
- respiratory exchange or arterial blood gases (cardiac arrest, pigs; ventilation with argon): did not impair
- reduction of myocardial infarct size [3]: 22%
- neurological deficit score ([4]; at all time points): significant improvements
- neuronal injury (histology) [4]: significant reduction
- plasma level of myocardial troponin T ([5]; 30 min LAD occlusion, 1 hour ventilation 70% argon - 30% oxygen from 5 min before reperfusion, after 6 hours, control 7432 ng/l, p < 0.05): 3128 ng/L
- neutrophil infiltration ([5]; LAD occlusion, argon ventilation group, control 92 cells/mm^2): 72 cells/mm^2
